Experimental findings from US4474977A, “Amino-alcohol derivatives” (Continental Pharma S.A., priority 1977, dated 1984) are described below.

One assay deals with guinea pig ileum. The assay can be described thus: antispasmodic activity against contractions of guinea pig ileum induced by histamine and acetylcholine. The settings on record: Cavia porcellus. The method, then:
The antispasmodic activity of the products according to the invention was tested against contractions of guinea pig ileum, such as induced by histamine and acetylcholine. These tests allow to reveal an antihistaminic activity, an anticholinergic activity or a musculotropic antispasmodic activity. The response to the contracting agent (submaximum concentration)was repeated every 5 minutes before and after injection of increasing doses of the tested products (10^-8 to 10^-5 M). The various doses were added at intervals of 20 minutes or of the time necessary to the development of the maximum effect.
The percentage of inhibition under the influence of tested products was calculated and the theoretical concentration ensuring 50% inhibition was graphically determined for each experience. These values were expressed as -log IC50 (M). The standard value for papaverine was 4.50, namely an effective concentration of 30 μM.

Assay [1] relates to femoral arterial circulation. The assay can be described thus: peripheral vasodilator activity on anaesthetized dog, femoral arterial perfusion pressure. In kind it is in vivo. Conditions: 30 μg/kg injected in femoral perfusion (some also at other doses); in words. The method, then:
The peripheral vasodilator activity of the products according to the invention was measured on anaesthetized dog at the level of the femoral arterial circulation. To this end, the femoral artery the collaterals of which were ligaturated was perfused with a constant flow rate of blood taken from aorta. Thus the perfusion pressure measured at the level of the femoral artery, varied as a function of the resistance of perfused area. The tested products and the corresponding solvents were directly injected in the system at the dose of 30 μg/kg. The blood circulation rate being maintained constant, a vasodilation was thus measured by a decrease of the perfusion pressure. The latter is rated in comparison with the action of papaverine considered as standard and injected once per group of 4 products.
When being of interest, the products were tested at other doses under the same conditions. The vasodilation activity was rated as follows:
+: 1/3 of the papaverine activity
++: 2/3 of the papaverine activity
+++: activity equal to that of papaverine (i.e. 30 to 40 mm Hg)
++++: activity higher than that of papaverine.

Assay [2] has as its system spontaneously hypertensive rats. The assay can be described thus: antihypertensive activity, oral administration to non-anesthetized spontaneously hypertensive rats, systolic arterial pressure (plethysmographic). The assay is classed as in vivo, rat. The settings on record: for antihypertensive activity: 60 mgr/kg oral (some also at other doses), in words; for antihypertensive effect (rating): oral. As for the experimental part: Their antihypertensive activity was tested by oral administration to non-anesthetized, spontaneously hypertensive rats, on which the systolic arterial pressure is measured at the level of the median coccygeal artery by means of a plethysmographic method (J. Roba, G. Lambelin, A. F. De Schaepdryver, Arch. int. Pharmacodyn., 200, 182, 1972). The arterial pressure was measured every 30 minutes from two hours before to three hours after oral administration of 60 mgr/kg of the tested products or of a placebo (1% tragacanth gum mucilage). When being of interest, the products were tested at other doses under similar conditions. Only rats having a systolic pressure of 180 to 220 mm Hg were used. Two rats were used for each product. The treatments were made without the knowledge of the person making the measures. The antihypertensive effects were rated as follows:
+: reduction of 10 to 20 mm Hg
++: reduction of 20 to 30 mm Hg
+++: reduction of 30 to 50 mm Hg
++++: reduction >50 mm Hg

The test system of assay [3] is epididymal fat of the rat. Nature of the assay: effect on in vitro induced lipolysis in epididymal fat of the rat. The settings on record: in words. As for the experimental part: The effect on the in vitro induced lipolysis in the epididymal fat of the rat was measured by colorimetry of fatty acids liberated during the tissue incubation under the experimental conditions such as described hereinafter.
Male Sprague-Dawley rats weighing about 250 gr were sacrified by cervical dislocation after a fasting period of 18 hours. The quickly taken-off epididymal fat was placed in a Krebs-Ringer phosphate buffer at pH 7.4, containing 1% albumin.
The tissue was cut into fragments of ±20 mgr, which were dried on filter paper and homogeneously distributed in groups of ±150 mgr weighed with precision. Each group was pre-incubated (15 minutes, 37° C., stirring) in 5 ml of Krebs-Ringer phosphate buffer (pH 7.4) containing 7% of bovine albumin and the product to be tested.
After pre-incubation, 1 ml of the medium is taken off for determining the amount of basic lipolysis. The induction agent in solution in 0.1 ml of phosphate buffer is then added to 4 ml of the remaining medium and after incubation of 90 minutes under the same conditions, liberated fatty acids are titrated in 1 ml of medium according to a variant of the colorimetric method of W. G. Duncombe (Biochem. J., 83, 6P, 1962; Biochem. J., 88, 7-10, 1963; Clin. Chem. Acta, 9, 122-125, 1964).

Assay [4] has as its system human platelet rich plasma (PRP). The assay can be described thus: blood platelet aggregation (Born method) in human platelet rich plasma. The assay is classed as cell-based. The settings on record: 24 μl of 2×10^-2 M solution added to 300 μl PRP; induced by thrombofax or collagen; in words. The method, then: The blood platelet aggregation was studied according to the Born Method (J. Physiol., 168, 178, 1963). Nine volumes of human venous blood were taken off and anticoagulated with one volume of a trisodium citrate solution (0.129 M). The blood was centrifuged at 200 g for 10 minutes (22° C.) for preparing the platelet rich plasma (PRP). Methanol or acetone was used in order to obtain 2×10^-2 M solutions of the various involved products, 24 μl of each product were added to 300 μl of PRP. For controls, 24 μl of the various hereinabove mentioned solvents were used. The products were pre-incubated in the presence of PRP for 4 minutes at 37° C. under continuous stirring (1100 rpm). After this incubation period, the platelet aggregation was induced by addition of 100 μl of thrombofax or collagen. The aggregation phenomenon was quantified by graphical determination of the aggregation amplitude (A).
The inhibition percentage of the agglutination amplitude was calculated as follows:
A (% inhibition): 100-(Ax /Ao)×100
Ax : value of aggregation amplitude in the presence of examined products
Ao : value of aggregation amplitude for controls

The mark [5] stands for this setting: read-out: -log IC50 (M), antispasmodic activity (converted).
Setting [6] is: read-out: effective concentration / concentration corresponding to -log IC50 (converted).
Where [7] appears, read: 50% inhibition of contractions, converted from -log IC50, read-out: effective concentration / concentration corresponding to -log IC50 (converted).
The mark [8] stands for this setting: contractions induced by histamine and acetylcholine, 10^-8 to 10^-5 M, read-out: -log IC50 (M), antispasmodic activity (converted).

Like-named read-outs stand apart in the source and are kept apart here.

On to `CCCCCCCCNC(C)C(OC(C)=O)c1ccc(OC(C)C)cc1` (stereo not shown) [Compound 18, 1-acetyloxy-1-(4-isopropyloxyphenyl)-2-n.octylaminopropane], for which the IC50 in the assay with guinea pig ileum (setting [5]) and in the assay with guinea pig ileum (setting [6]) was under 1e-06 M in each case. Further, the “peripheral vasodilator activity (compared with papaverine)” value in assay [1] is “at least equal to that of papaverine”. In assay [2], the antihypertensive activity entry is on record as “suitable antihypertensive activity”.
For the molecule `CCCC(=O)OC(c1ccc(SC(C)C)cc1)C(C)NCCOc1ccccc1` (stereo not shown) [Compound 24], the IC50 with guinea pig ileum (setting [7]) and in the assay with guinea pig ileum (setting [8]) was under 1e-06 M in each case. For the same molecule, in assay [2], the antihypertensive activity entry was “suitable antihypertensive activity”.
Take `CCCCCCCCNC(C)C(OC(=O)Cc1ccc(OC)cc1)c1ccc(SC(C)C)cc1` (stereo not shown) [Compound 35]: the antihypertensive activity entry in assay [2] was “suitable antihypertensive activity”.
Take `CCCCCCCCNC(C)C(OC(=O)C(C)(C)C)c1ccc(SC(C)C)cc1` (stereo not shown) [Compound 1]: the IC50 with guinea pig ileum (setting [7]) and in the assay on guinea pig ileum (setting [8]) was under 1e-06 M throughout. Also, the “effect on induced lipolysis” value in assay [3] is listed as “active”.
As for `CC(C)Oc1ccc(C(O)C(C)NCCCCc2ccccc2)cc1` (stereo not shown) [Compound 94, 1-(4-Isopropoxyphenyl)-2-(4-phenylbutylamino)-1-propanol], the antihypertensive activity result in assay [2] was “suitable antihypertensive activity”.
Regarding `CC(=O)OC(c1ccc(SC(C)C)cc1)C(C)NCCOc1ccccc1` (stereo not shown) [Compound 25], in assay [2], the antihypertensive activity entry is “suitable antihypertensive activity”.
On the same count and under the same terms, the same measure for `CC(=O)OC(c1ccc(SC(C)C)cc1)C(C)NCCCC(=O)c1ccc(F)cc1` (stereo not shown) [Compound 43]: “suitable antihypertensive activity”; for `CCCCCCCCNC(C)C(OC(=O)Cc1ccccc1)c1ccc(SC(C)C)cc1` (stereo not shown) [Compound 34]: “suitable antihypertensive activity”; for `CCCCCCCCNC(C)C(OC(=O)CC1CCCCC1)c1ccc(SC(C)C)cc1` (stereo not shown) [Compound 37]: “suitable antihypertensive activity”.
With `CCCCCCCCNC(C)C(OC(=O)CC(C)(C)C)c1ccc(SC(C)C)cc1.Cl` (stereo not shown) [Compound 30, 1-neopentylcarbonyloxy-1-(4-isopropylthiophenyl)-2-n-octylaminopropane (hydrochloride)], the IC50 in the assay with guinea pig ileum (setting [8]) is under 1e-06 M. Besides, the anti-aggregation effect result in assay [4] is “strong anti-aggregation effect”. Moreover, the antihypertensive activity result in assay [2] is reported as “suitable antihypertensive activity”.
For `CC(C)Sc1ccc(C(OC(=O)C2CCC2)C(C)NCCCCc2ccccc2)cc1` (stereo not shown) [Compound 10], the IC50 in the assay with guinea pig ileum (setting [7]) and in the assay on guinea pig ileum (setting [8]) was under 1e-06 M in each case. For the same molecule, the antihypertensive activity result in assay [2] was “suitable antihypertensive activity”.
On to `CCCCCCCCNC(C)C(O)c1ccc(OC)cc1` (stereo not shown) [Compound 74, 1-(4-methoxyphenyl)-2-n-octylamino-1-propanol], for which the “effect on induced lipolysis” value in assay [3] is on record as “active”. Further, in assay [1], the “peripheral vasodilator activity (compared with papaverine)” value is “at least equal to that of papaverine”.
With `CCCCCCCCNC(C)C(O)c1ccccc1` (stereo not shown) [Compound 76], the “effect on induced lipolysis” value in assay [3] is given as “active”.
As to `COC(=O)[C@H]1[C@H]2C[C@@H]3c4[nH]c5cc(OC)ccc5c4CCN3C[C@H]2C[C@@H](OC(=O)c2cc(OC)c(OC)c(OC)c2)[C@@H]1OC` [reserpine, reference compound], in assay [2] (3 mgr/kg), the “antihypertensive effect (rating)” value is given as “+++ (reduction of 30 to 50 mm Hg)”.
As to `CCCCCCCCNC(C)C(OC(=O)C(C)C)c1ccc(OCCCC)cc1` (stereo not shown) [Compound 19, 1-(p-n-Butyloxyphenyl)-1-sec-butyryloxy-2-n-octylaminopropane], the antihypertensive activity entry in assay [2] is recorded as “suitable antihypertensive activity”.
As for `CCCCCCCCNC(C)C(O)c1ccc(Cl)cc1` (stereo not shown) [Compound 85], the IC50 with guinea pig ileum (setting [5]) and with guinea pig ileum (setting [6]) was under 1e-06 M each time. Also, the “peripheral vasodilator activity (compared with papaverine)” value in assay [1] is given as “at least equal to that of papaverine”.
As for `CC(N)(Cc1ccc(O)c(O)c1)C(=O)O` (stereo not drawn) [α-methyldopa, reference compound], the “antihypertensive effect (rating)” value in assay [2] (100 mgr/kg) is listed as “+++ (reduction of 30 to 50 mm Hg)”.
As for `CC(C)Oc1ccc(C(OC(=O)C2CCCCC2)C(C)NCCCCc2ccccc2)cc1` (stereo not shown) [Compound 20], the IC50 with guinea pig ileum (setting [7]) and in the assay with guinea pig ileum (setting [8]) was under 1e-06 M throughout. Besides, in assay [1], the “peripheral vasodilator activity (compared with papaverine)” value was “at least equal to that of papaverine”. In assay [2], the antihypertensive activity entry is given as “suitable antihypertensive activity”.
On to `CCCC(=O)OC(c1ccc(SC(C)C)cc1)C(C)NCCCCc1ccccc1` (stereo not shown) [Compound 23], for which the IC50 in the assay with guinea pig ileum (setting [7]) and with guinea pig ileum (setting [8]) was under 1e-06 M in each case. For the same molecule, in assay [1], the “peripheral vasodilator activity (compared with papaverine)” value is recorded as “at least equal to that of papaverine”.
Consider `CCCCCCCCNC(C)C(OC(=O)C1CCCC1)c1ccc(SC(C)C)cc1` (stereo not shown) [Compound 8], for which the antihypertensive activity result in assay [2] is given as “suitable antihypertensive activity”.
`CCCCCCCCNC(C)C(OC(C)=O)c1ccc(SC(C)C)cc1.Cl` (stereo not shown) [Compound 3, 1-Acetyloxy-1-(4-isopropylthiophenyl)-2-n-octylaminopropane hydrochloride]: the IC50 with guinea pig ileum (setting [5]) and with guinea pig ileum (setting [6]) was under 1e-06 M each time. In addition, in assay [4], the anti-aggregation effect entry is “strong anti-aggregation effect”. Further, the “peripheral vasodilator activity (compared with papaverine)” value in assay [1] was “at least equal to that of papaverine”.
For `CCCCCCCCNC(C)C(O)c1ccc(C)cc1` (stereo not shown) [Compound 75], the “effect on induced lipolysis” value in assay [3] was “active”.
As for `CCCCCCCCNC(C)C(OC(=O)C1CCCCC1)c1ccc(SC(C)C)cc1` (stereo not shown) [Compound 7], the antihypertensive activity result in assay [2] is recorded as “suitable antihypertensive activity”.
On to `CC(=O)OC(c1ccc(SC(C)C)cc1)C(C)NCCCCc1ccccc1` (stereo not shown) [Compound 27], for which the IC50 in the assay with guinea pig ileum (setting [5]) and in the assay on guinea pig ileum (setting [6]) was under 1e-06 M each time. Besides, the “peripheral vasodilator activity (compared with papaverine)” value in assay [1] is reported as “at least equal to that of papaverine”. Moreover, the antihypertensive activity result in assay [2] is listed as “suitable antihypertensive activity”.
Take `CCCCCCCCNC(C)C(O)c1ccc(OCCCC)cc1` (stereo not shown) [Compound 91, 1-(4-butoxyphenyl)-2-n-octylamino-1-propanol]: the IC50 in the assay with guinea pig ileum (setting [5]) and with guinea pig ileum (setting [6]) was under 1e-06 M each time. For the same molecule, in assay [1], the “peripheral vasodilator activity (compared with papaverine)” value was “at least equal to that of papaverine”.
